Assay results published in US20070287718A1 (priority 2003, published 2007).

Tests used:
Cdk9/cyclin T1 = Cdk9/cyclin T1 (Homo sapiens, UniProt P50750); conditions: CDK 9/Cyclin T (McClue et al., 2002); cited from earlier work
MDN = assay: Induction of apoptosis by apo2.7 immunostaining; assay type: cell-based, human
Source text: (§1) The induction of apoptosis at day 3 by apo2.7 was investigated by immunostaining.

XG-1 = assay: Induction of apoptosis by apo2.7 immunostaining; assay type: cell-based, human
Source text: as §1

XG-6 = assay: Induction of apoptosis by apo2.7 immunostaining; assay type: cell-based, human
Source text: as §1

[1] = test system: myeloma cell population (high expression of CD38); assay: Apoptosis in cells taken from a multiple myeloma patient (ex vivo); assay type: cell-based, human; design: dose or concentration left out as unconfirmed; conditions: […] μM CYC202, day 2, patient cells ex vivo
Source text: (§2) Myeloma cells were identified by their high expression of CD38.
(§3) Myeloma cells were identified by their high expression of CD38. The number of apoptotic cells in the myeloma cell population was of 46% whereas only 4% of the non myeloma cell population was induced on apoptosis.

[2] = test system: non myeloma cell population; assay: as above; assay type: cell-based, human; design: dose or concentration left out as unconfirmed; conditions: […] μM CYC202, day 2, patient cells ex vivo
Source text: as §2, §3

[3] = test system: multiple myeloma cell lines; assay: Apoptosis by TUNEL, flow cytometry; assay type: cell-based; conditions: 30 μM CYC202
Experimental: All cell lines were obtained from the DSMZ (Deutsche Sammlung von Mikroorganismen und Zellkulturen).
Cells were seeded onto 90 mm diameter plates. […] Cells were harvested at various time points after addition of the drug. After washing once in PBS, cells were fixed in ice-cold 70% v/v ethanol and stored for up to 2 weeks at −20° C. Cells were washed twice in PBS +1% w/v BSA to remove fixative and re-suspended in PBS containing 50 μg/ml propidium iodide and 50 μg/ml RnaseA. After incubation at room temperature for 20 min, cells were analysed using flow cytometry.
A Becton Dickinson LSR flow cytometer was used for these studies, in accordance with the manufacturers recommendations. […] Red fluorescence (575±26 nm) was acquired on a linear scale and pulse width analysis was used to exclude cell doublets and aggregates from the analysis. Cells with a DNA content of between 2 n and 4 n were designated as being in G1, S or G2/M phases of the cell cycle, as defined by the level of red fluorescence. […] The number of cells in each cell cycle compartment was expressed as a percentage of the total number of cells present. Analysis of apoptosis was determined using terminal deoxynucleotidyltransferase dUTP nick end labelling (TUNEL) using the APO-DIRECT kit from BD biosciences (catalog number 556381) according to the manufacturer's instructions.

Mcl-1 [4] = assay: Western blot, Mcl-1 protein levels in myeloma cell lines; assay type: cell-based
Mcl-1 mRNA = assay: Real time PCR of Mcl-1 mRNA in LP-1 cells; assay type: cell-based; conditions: normalised to 28S rRNA
Hdm2 = assay: Western blot, Hdm2 levels in myeloma cells; assay type: cell-based
Mcl-1 [5] = assay: Western blotting of Mcl-1 expression, MDN cells; assay type: cell-based, human
Source text: (§4) The downregulation of Mcl-1 preceded the induction of apoptosis.

Mcl-1 [6] = assay: Western blotting of Mcl-1 expression, XG-1 cells; assay type: cell-based, human; conditions: XG-1, 30 μM, seven hours
Source text: as §4

Mcl-1 [7] = assay: Western blotting of Mcl-1 expression, XG-6 cells; assay type: cell-based, human; conditions: XG-6, 30 μM, seven hours
Source text: as §4

RNA polII on Ser-2 [8] = assay: Western blotting of RNA pol II phosphorylation, MDN cells; assay type: cell-based, human; conditions: 30 μM, seven hours
Source text: as §4

RNA polII on Ser-2 [9] = assay: Western blotting of RNA pol II phosphorylation, XG-1 cells; assay type: cell-based, human; conditions: XG-1, 30 μM, seven hours
Source text: as §4

RNA polII on Ser-2 [10] = assay: Western blotting of RNA pol II phosphorylation, XG-6 cells; assay type: cell-based, human; conditions: XG-6, 30 μM, seven hours
Source text: as §4

[11] = test system: RNA polymerase II at the serine 2 position of the CTD; assay: Western blot, RNA polymerase II CTD phosphorylation in LP-1 cells; conditions: 30 μM CYC202
CTD of RNA polymerase II = assay: Western blot, phosphorylation of CTD of RNA polymerase II in myeloma cells; assay type: cell-based; conditions: 60 mM DRB
Source text: Arrow indicates cleaved form indicative of apoptosis.

Chain of Cdk9/cyclin T1 (P50750 whole entry, species assumed): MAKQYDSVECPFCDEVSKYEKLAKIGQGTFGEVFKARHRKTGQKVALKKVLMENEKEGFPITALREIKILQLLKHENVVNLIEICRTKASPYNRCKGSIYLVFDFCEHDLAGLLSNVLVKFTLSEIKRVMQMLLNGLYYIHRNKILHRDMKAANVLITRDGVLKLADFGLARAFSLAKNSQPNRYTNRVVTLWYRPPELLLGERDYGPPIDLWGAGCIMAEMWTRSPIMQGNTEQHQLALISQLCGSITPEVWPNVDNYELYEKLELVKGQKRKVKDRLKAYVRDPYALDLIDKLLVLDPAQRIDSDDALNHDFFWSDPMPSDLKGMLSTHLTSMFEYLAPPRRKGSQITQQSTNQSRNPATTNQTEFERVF
Chain of Cdk9/cyclin T1 (O60563 whole entry partner, species assumed): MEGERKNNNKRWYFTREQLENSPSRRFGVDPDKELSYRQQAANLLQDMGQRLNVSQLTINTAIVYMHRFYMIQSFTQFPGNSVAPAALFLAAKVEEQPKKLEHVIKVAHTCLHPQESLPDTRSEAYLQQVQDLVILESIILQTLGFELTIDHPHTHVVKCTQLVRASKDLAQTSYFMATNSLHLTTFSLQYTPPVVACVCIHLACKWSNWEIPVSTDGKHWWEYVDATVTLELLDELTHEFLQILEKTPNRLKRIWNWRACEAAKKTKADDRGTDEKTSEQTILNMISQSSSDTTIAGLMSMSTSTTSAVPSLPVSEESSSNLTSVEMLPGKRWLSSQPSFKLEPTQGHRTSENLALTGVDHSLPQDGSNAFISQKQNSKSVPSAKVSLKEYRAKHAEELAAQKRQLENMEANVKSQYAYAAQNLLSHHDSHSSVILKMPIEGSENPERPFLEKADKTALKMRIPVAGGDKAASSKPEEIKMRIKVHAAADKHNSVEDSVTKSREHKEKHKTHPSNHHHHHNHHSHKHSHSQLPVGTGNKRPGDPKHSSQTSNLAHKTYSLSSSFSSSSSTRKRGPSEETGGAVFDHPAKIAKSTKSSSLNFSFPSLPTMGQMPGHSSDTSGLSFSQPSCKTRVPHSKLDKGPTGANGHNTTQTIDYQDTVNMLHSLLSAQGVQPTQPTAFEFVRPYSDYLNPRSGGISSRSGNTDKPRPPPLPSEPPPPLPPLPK

CC[C@H](CO)Nc1nc(NCc2ccccc2)c2ncn(C(C)C)c2n1 (racemic) [roscovitine, 2-[(1-ethyl-2-hydroxyethyl)amino]-6-benzylamine-9-isopropylpurine]
inhibition in vitro (Cdk9/cyclin T1): low μM concentrations

CC[C@H](CO)Nc1nc(NCc2ccccc2)c2ncn(C(C)C)c2n1 (single isomer, unassigned) [CYC202, 2-(1-R-hydroxymethylpropylamino)-6-benzylamino-9-isopurine]
% of apoptotic cells after 3 day treatment (MDN; 3 μM): 3%
% of apoptotic cells after 3 day treatment (MDN; 6 μM): 5%
% of apoptotic cells after 3 day treatment (MDN; 12 μM): 41%
induction of apoptosis at day 3 (apo2.7) (MDN; 12 μM): significant and strong induction of apoptosis
induction of apoptosis at day 3 (apo2.7) (XG-1; XG1, 30 μM): significant and strong induction of apoptosis
% of apoptotic cells after 3 day treatment (XG-1; XG-1, 7.5 μM): 2%
% of apoptotic cells after 3 day treatment (XG-1; XG-1, 30 μM): 70%
% of apoptotic cells after 3 day treatment (XG-1; XG-1, […] μM): 18%
% of apoptotic cells after 3 day treatment (XG-6; XG-6, 7.5 μM): 4%
% of apoptotic cells after 3 day treatment (XG-6; XG-6, 30 μM): 74%
induction of apoptosis at day 3 (apo2.7) (XG-6; XG-6, 30 μM): significant and strong induction of apoptosis
% of apoptotic cells after 3 day treatment (XG-6; XG-6, […] μM): 15%
number of apoptotic cells in the myeloma cell population [1]: 46%
non myeloma cell population induced on apoptosis [2]: 4%
induction of apoptosis (TUNEL) [3]: rapid apoptosis seen in the majority of cells by eight hours
levels of Mcl-1 protein (Mcl-1 [4]; all cell lines studied, CYC202 treatment): rapidly reduced in all cell lines, by three hours
levels of Mcl-1 mRNA by real-time PCR (Mcl-1 mRNA): reduced
levels of Hdm2 (Hdm2; myeloma cell lines, CYC202 treatment): also reduced
Mcl-1 expression (Mcl-1 [5]; 30 μM of CYC202, seven hours): total downregulation of Mcl-1
Mcl-1 expression (Mcl-1 [5]; 6 or […] μM of CYC202, seven hours): decrease of Mcl-1 expression
Mcl-1 expression (Mcl-1 [6]): strong downregulation of Mcl-1
Mcl-1 expression (Mcl-1 [7]): strong downregulation of Mcl-1
phosphorylation of RNA polII on Ser-2 (RNA polII on Ser-2 [8]): total downregulation
phosphorylation of RNA polII on Ser-2 (RNA polII on Ser-2 [9]): total downregulation
phosphorylation of RNA polII on Ser-2 (RNA polII on Ser-2 [10]): total downregulation
dephosphorylation of RNA polymerase II at serine 2 of the CTD [11]: rapid dephosphorylation of RNA polymerase II at the serine 2 position of the CTD of RNA pol II, by one and a half hours

OC[C@H]1O[C@@H](n2cnc3cc(Cl)c(Cl)cc32)[C@H](O)[C@@H]1O [DRB, reference compound]
Mcl-1 levels (Mcl-1 [4]; myeloma cells, 60 mM DRB): down regulates
Hdm2 levels (Hdm2; myeloma cells, 60 mM DRB): down regulates
phosphorylation of the CTD of RNA polymerase II (CTD of RNA polymerase II): inhibits phosphorylation
